# Tested on: HC-1;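 further: growth inhibition of HC-1 cells measured by a cell viability assay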
# Assay: cells
# Format: functional, cell-based, Homo sapiens
# Settings: Homo sapiens, HC-1
# Description: SANGER: Inhibition of human HC-1 cell growth in a cell viability assay.
row,Compound,IC50 [µM]
1,OCCCNc1cc(-c2ccnc(Nc3cccc(Cl)c3)n2)ccn1,0.0522

# Tested on: CGTH-W-1;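 further: growth inhibition of human CGTH-W-1 cells measured by cell viability assay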
# Assay: cells
# Format: functional, cell-based, Homo sapiens
# Settings: Homo sapiens, CGTH-W-1
# Description: SANGER: Inhibition of human CGTH-W-1 cell growth in a cell viability assay.
row,Compound,IC50 [µM]
1,OCCCNc1cc(-c2ccnc(Nc3cccc(Cl)c3)n2)ccn1,0.0798

# Tested on: OVCAR-4;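 further: growth inhibition of human OVCAR-4 cells, measured with a cell viability assay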
# Assay: cells
# Format: functional, cell-based, Homo sapiens
# Settings: Homo sapiens, OVCAR-4
# Description: SANGER: Inhibition of human OVCAR-4 cell growth in a cell viability assay.
row,Compound,IC50 [µM]
1,OCCCNc1cc(-c2ccnc(Nc3cccc(Cl)c3)n2)ccn1,> 0.256

# Tested on: MSTO-211H
# Assay: cells
# Format: functional, cell-based, Homo sapiens
# Settings: Homo sapiens, MSTO-211H
# Description: SANGER: Inhibition of human MSTO-211H cell growth in a cell viability assay.
row,Compound,IC50 [µM]
1,OCCCNc1cc(-c2ccnc(Nc3cccc(Cl)c3)n2)ccn1,> 0.256

# Tested on: NOMO-1;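 further: growth inhibition of human NOMO-1 cells measured by a cell viability assay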
# Assay: cells
# Format: functional, cell-based, Homo sapiens
# Settings: Homo sapiens, NOMO-1
# Description: SANGER: Inhibition of human NOMO-1 cell growth in a cell viability assay.
row,Compound,IC50 [µM]
1,OCCCNc1cc(-c2ccnc(Nc3cccc(Cl)c3)n2)ccn1,> 0.256

# Tested on: HCC2157;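 further: growth inhibition of the cancer cell line, read out as cell viability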
# Assay: cells
# Format: functional, cell-based, Homo sapiens
# Settings: Homo sapiens, HCC2157
# Description: SANGER: Inhibition of human HCC2157 cell growth in a cell viability assay.
row,Compound,IC50 [µM]
1,OCCCNc1cc(-c2ccnc(Nc3cccc(Cl)c3)n2)ccn1,0.206

# Tested on: MOLT-16;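 further: growth inhibition of human MOLT-16 cells, read out with a cell viability assay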
# Assay: cells
# Format: functional, cell-based, Homo sapiens
# Settings: Homo sapiens, MOLT-16
# Description: SANGER: Inhibition of human MOLT-16 cell growth in a cell viability assay.
row,Compound,IC50 [µM]
1,OCCCNc1cc(-c2ccnc(Nc3cccc(Cl)c3)n2)ccn1,> 0.256

# Tested on: NCI-H1650;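 further: growth inhibition of human NCI-H1650 cells measured by a cell viability assay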
# Assay: cells
# Format: functional, cell-based, Homo sapiens
# Settings: Homo sapiens, NCI-H1650
# Description: SANGER: Inhibition of human NCI-H1650 cell growth in a cell viability assay.
row,Compound,IC50 [µM]
1,OCCCNc1cc(-c2ccnc(Nc3cccc(Cl)c3)n2)ccn1,> 0.256

# Tested on: LS-1034
# Assay: cells
# Format: functional, cell-based, Homo sapiens
# Settings: Homo sapiens, LS-1034
# Description: SANGER: Inhibition of human LS-1034 cell growth in a cell viability assay.
row,Compound,IC50 [µM]
1,OCCCNc1cc(-c2ccnc(Nc3cccc(Cl)c3)n2)ccn1,0.255

# Tested on: COLO-824
# Assay: cells
# Format: functional, cell-based, Homo sapiens
# Settings: Homo sapiens, COLO-824
# Description: SANGER: Inhibition of human COLO-824 cell growth in a cell viability assay.
row,Compound,IC50 [µM]
1,OCCCNc1cc(-c2ccnc(Nc3cccc(Cl)c3)n2)ccn1,> 0.256

# Tested on: IA-LM;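 further: cell viability assay measuring growth inhibition of human IA-LM cells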
# Assay: cells
# Format: functional, cell-based, Homo sapiens
# Settings: Homo sapiens, IA-LM
# Description: SANGER: Inhibition of human IA-LM cell growth in a cell viability assay.
row,Compound,IC50 [µM]
1,OCCCNc1cc(-c2ccnc(Nc3cccc(Cl)c3)n2)ccn1,0.0932

# Tested on: SW 962;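 further: growth inhibition of human SW962 cells, read out by a cell viability assay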
# Assay: cells
# Format: functional, cell-based, Homo sapiens
# Settings: Homo sapiens, SW 962
# Description: SANGER: Inhibition of human SW962 cell growth in a cell viability assay.
row,Compound,IC50 [µM]
1,OCCCNc1cc(-c2ccnc(Nc3cccc(Cl)c3)n2)ccn1,0.0451

# Tested on: D283 Med
# Assay: cells
# Format: functional, cell-based, Homo sapiens
# Settings: Homo sapiens, D283 Med
# Description: SANGER: Inhibition of human D-283MED cell growth in a cell viability assay.
row,Compound,IC50 [µM]
1,OCCCNc1cc(-c2ccnc(Nc3cccc(Cl)c3)n2)ccn1,> 0.256

# Tested on: KP-N-YS;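 further: cell viability assay measuring inhibition of cell line growth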
# Assay: cells
# Format: functional, cell-based, Homo sapiens
# Settings: Homo sapiens, KP-N-YS
# Description: SANGER: Inhibition of human KP-N-YS cell growth in a cell viability assay.
row,Compound,IC50 [µM]
1,OCCCNc1cc(-c2ccnc(Nc3cccc(Cl)c3)n2)ccn1,> 0.256

# Tested on: HAL-01;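 further: growth inhibition of human HAL-01 cells, read out with a cell viability assay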
# Assay: cells
# Format: functional, cell-based, Homo sapiens
# Settings: Homo sapiens, HAL-01
# Description: SANGER: Inhibition of human HAL-01 cell growth in a cell viability assay.
row,Compound,IC50 [µM]
1,OCCCNc1cc(-c2ccnc(Nc3cccc(Cl)c3)n2)ccn1,0.066

# Tested on: L-428
# Assay: cells
# Format: functional, cell-based, Homo sapiens
# Settings: Homo sapiens, L-428
# Description: SANGER: Inhibition of human L-428 cell growth in a cell viability assay.
row,Compound,IC50 [µM]
1,OCCCNc1cc(-c2ccnc(Nc3cccc(Cl)c3)n2)ccn1,0.112

# Tested on: A3-KAW;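 further: growth inhibition of human A3-KAW cells, read out with a cell viability assay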
# Assay: cells
# Format: functional, cell-based, Homo sapiens
# Settings: Homo sapiens, A3-KAW
# Description: SANGER: Inhibition of human A3-KAW cell growth in a cell viability assay.
row,Compound,IC50 [µM]
1,OCCCNc1cc(-c2ccnc(Nc3cccc(Cl)c3)n2)ccn1,0.0199

# Tested on: MFH-ino;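 further: growth inhibition of human MFH-ino cells, read out by a cell viability assay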
# Assay: cells
# Format: functional, cell-based, Homo sapiens
# Settings: Homo sapiens, MFH-ino
# Description: SANGER: Inhibition of human MFH-ino cell growth in a cell viability assay.
row,Compound,IC50 [µM]
1,OCCCNc1cc(-c2ccnc(Nc3cccc(Cl)c3)n2)ccn1,0.0807

# Tested on: BB65-RCC;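 further: growth inhibition of the cell line, measured with a cell viability assay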
# Assay: cells
# Format: functional, cell-based, Homo sapiens
# Settings: Homo sapiens, BB65-RCC
# Description: SANGER: Inhibition of human BB65-RCC cell growth in a cell viability assay.
row,Compound,IC50 [µM]
1,OCCCNc1cc(-c2ccnc(Nc3cccc(Cl)c3)n2)ccn1,0.0601

# Tested on: TGW;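 further: growth inhibition of human TGW cells, read out with a cell viability assay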
# Assay: cells
# Format: functional, cell-based, Homo sapiens
# Settings: Homo sapiens, TGW
# Description: SANGER: Inhibition of human TGW cell growth in a cell viability assay.
row,Compound,IC50 [µM]
1,OCCCNc1cc(-c2ccnc(Nc3cccc(Cl)c3)n2)ccn1,0.0769

# Tested on: OCUB-M;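 further: growth inhibition of the cancer cell line, read out through a cell viability assay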
# Assay: cells
# Format: functional, cell-based, Homo sapiens
# Settings: Homo sapiens, OCUB-M
# Description: SANGER: Inhibition of human OCUB-M cell growth in a cell viability assay.
row,Compound,IC50 [µM]
1,OCCCNc1cc(-c2ccnc(Nc3cccc(Cl)c3)n2)ccn1,0.0525

# Tested on: NEC8;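 further: growth inhibition of human NEC8 cells, read out by a cell viability assay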
# Assay: cells
# Format: functional, cell-based, Homo sapiens
# Settings: Homo sapiens, NEC8
# Description: SANGER: Inhibition of human NEC8 cell growth in a cell viability assay.
row,Compound,IC50 [µM]
1,OCCCNc1cc(-c2ccnc(Nc3cccc(Cl)c3)n2)ccn1,> 0.256

# Tested on: BE-13;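 further: growth inhibition of human BE-13 cells, measured with a cell viability assay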
# Assay: cells
# Format: functional, cell-based, Homo sapiens
# Settings: Homo sapiens, BE-13
# Description: SANGER: Inhibition of human BE-13 cell growth in a cell viability assay.
row,Compound,IC50 [µM]
1,OCCCNc1cc(-c2ccnc(Nc3cccc(Cl)c3)n2)ccn1,0.0769

# Tested on: EW-24;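 further: human EW-24 cancer cell line, growth inhibition read out via a cell viability assay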
# Assay: cells
# Format: functional, cell-based, Homo sapiens
# Settings: Homo sapiens, EW-24
# Description: SANGER: Inhibition of human EW-24 cell growth in a cell viability assay.
row,Compound,IC50 [µM]
1,OCCCNc1cc(-c2ccnc(Nc3cccc(Cl)c3)n2)ccn1,> 0.256

# Tested on: NCI-H747;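 further: growth inhibition of human NCI-H747 cells, read out by a cell viability assay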
# Assay: cells
# Format: functional, cell-based, Homo sapiens
# Settings: Homo sapiens, NCI-H747
# Description: SANGER: Inhibition of human NCI-H747 cell growth in a cell viability assay.
row,Compound,IC50 [µM]
1,OCCCNc1cc(-c2ccnc(Nc3cccc(Cl)c3)n2)ccn1,0.0473

# Tested on: TE-11;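 further: growth inhibition of human TE-11 cells, read out by a cell viability assay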
# Assay: cells
# Format: functional, cell-based, Homo sapiens
# Settings: Homo sapiens, TE-11
# Description: SANGER: Inhibition of human TE-11 cell growth in a cell viability assay.
row,Compound,IC50 [µM]
1,OCCCNc1cc(-c2ccnc(Nc3cccc(Cl)c3)n2)ccn1,0.0342

# Tested on: A101D;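 further: growth inhibition of the cell line, measured with a viability assay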
# Assay: cells
# Format: functional, cell-based, Homo sapiens
# Settings: Homo sapiens, A101D
# Description: SANGER: Inhibition of human A101D cell growth in a cell viability assay.
row,Compound,IC50 [µM]
1,OCCCNc1cc(-c2ccnc(Nc3cccc(Cl)c3)n2)ccn1,0.0205

# Tested on: TE-5;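 further: inhibition of cell growth, read out by a cell viability assay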
# Assay: cells
# Format: functional, cell-based, Homo sapiens
# Settings: Homo sapiens, TE-5
# Description: SANGER: Inhibition of human TE-5 cell growth in a cell viability assay.
row,Compound,IC50 [µM]
1,OCCCNc1cc(-c2ccnc(Nc3cccc(Cl)c3)n2)ccn1,0.0905

# Tested on: GR-ST
# Assay: cells
# Format: functional, cell-based, Homo sapiens
# Settings: Homo sapiens, GR-ST
# Description: SANGER: Inhibition of human GR-ST cell growth in a cell viability assay.
row,Compound,IC50 [µM]
1,OCCCNc1cc(-c2ccnc(Nc3cccc(Cl)c3)n2)ccn1,0.174

# Tested on: J-RT3-T3-5;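 further: cell viability assay measuring growth inhibition of human J-RT3-T3-5 cells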
# Assay: cells
# Format: functional, cell-based, Homo sapiens
# Settings: Homo sapiens, J-RT3-T3-5
# Description: SANGER: Inhibition of human J-RT3-T3-5 cell growth in a cell viability assay.
row,Compound,IC50 [µM]
1,OCCCNc1cc(-c2ccnc(Nc3cccc(Cl)c3)n2)ccn1,0.0832

# Tested on: MPP-89;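 further: growth inhibition of human MPP-89 cells, read out with a cell viability assay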
# Assay: cells
# Format: functional, cell-based, Homo sapiens
# Settings: Homo sapiens, MPP-89
# Description: SANGER: Inhibition of human MPP-89 cell growth in a cell viability assay.
row,Compound,IC50 [µM]
1,OCCCNc1cc(-c2ccnc(Nc3cccc(Cl)c3)n2)ccn1,0.0904

# Tested on: A704;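 further: growth inhibition of human A704 cells, read out with a cell viability assay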
# Assay: cells
# Format: functional, cell-based, Homo sapiens
# Settings: Homo sapiens, A704
# Description: SANGER: Inhibition of human A704 cell growth in a cell viability assay.
row,Compound,IC50 [µM]
1,OCCCNc1cc(-c2ccnc(Nc3cccc(Cl)c3)n2)ccn1,> 0.256

# Tested on: SF-268;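 further: growth inhibition of SF-268 cells determined with a cell viability assay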
# Assay: cells
# Format: functional, cell-based, Homo sapiens
# Settings: Homo sapiens, SF-268
# Description: SANGER: Inhibition of human SF268 cell growth in a cell viability assay.
row,Compound,IC50 [µM]
1,OCCCNc1cc(-c2ccnc(Nc3cccc(Cl)c3)n2)ccn1,0.0422

# Tested on: SK-N-FI;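 further: cell viability assay measuring growth inhibition of human SK-N-FI cells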
# Assay: cells
# Format: functional, cell-based, Homo sapiens
# Settings: Homo sapiens, SK-N-FI
# Description: SANGER: Inhibition of human SK-N-FI cell growth in a cell viability assay.
row,Compound,IC50 [µM]
1,OCCCNc1cc(-c2ccnc(Nc3cccc(Cl)c3)n2)ccn1,> 0.256

# Tested on: NCI-H720;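 further: growth inhibition of human NCI-H720 cells determined by a cell viability assay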
# Assay: cells
# Format: functional, cell-based, Homo sapiens
# Settings: Homo sapiens, NCI-H720
# Description: SANGER: Inhibition of human NCI-H720 cell growth in a cell viability assay.
row,Compound,IC50 [µM]
1,OCCCNc1cc(-c2ccnc(Nc3cccc(Cl)c3)n2)ccn1,> 0.256

# Tested on: NCI-H1395;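 further: cell viability assay read-out quantifying reduced proliferation of human NCI-H1395 cells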
# Assay: cells
# Format: functional, cell-based, Homo sapiens
# Settings: Homo sapiens, NCI-H1395
# Description: SANGER: Inhibition of human NCI-H1395 cell growth in a cell viability assay.
row,Compound,IC50 [µM]
1,OCCCNc1cc(-c2ccnc(Nc3cccc(Cl)c3)n2)ccn1,> 0.256

# Tested on: BB30-HNC;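 further: growth inhibition of the cultured cell line, read out by a cell viability assay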
# Assay: cells
# Format: functional, cell-based, Homo sapiens
# Settings: Homo sapiens, BB30-HNC
# Description: SANGER: Inhibition of human BB30-HNC cell growth in a cell viability assay.
row,Compound,IC50 [µM]
1,OCCCNc1cc(-c2ccnc(Nc3cccc(Cl)c3)n2)ccn1,0.0525

# Tested on: GOTO;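 further: growth inhibition of GOTO cells, read out by a cell viability assay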
# Assay: cells
# Format: functional, cell-based, Homo sapiens
# Settings: Homo sapiens, GOTO
# Description: SANGER: Inhibition of human GOTO cell growth in a cell viability assay.
row,Compound,IC50 [µM]
1,OCCCNc1cc(-c2ccnc(Nc3cccc(Cl)c3)n2)ccn1,0.0749

# Tested on: 8-MG-BA;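 further: growth inhibition of 8-MG-BA cells, read out with a cell viability assay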
# Assay: cells
# Format: functional, cell-based, Homo sapiens
# Settings: Homo sapiens, 8-MG-BA
# Description: SANGER: Inhibition of human 8-MG-BA cell growth in a cell viability assay.
row,Compound,IC50 [µM]
1,OCCCNc1cc(-c2ccnc(Nc3cccc(Cl)c3)n2)ccn1,0.056

# Tested on: SK-MEL-1;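 further: growth inhibition of human SK-MEL-1 cells, read out by a cell viability assay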
# Assay: cells
# Format: functional, cell-based, Homo sapiens
# Settings: Homo sapiens, SK-MEL-1
# Description: SANGER: Inhibition of human SK-MEL-1 cell growth in a cell viability assay.
row,Compound,IC50 [µM]
1,OCCCNc1cc(-c2ccnc(Nc3cccc(Cl)c3)n2)ccn1,> 0.256

# Tested on: IST-MEL1;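 further: growth inhibition of the cell line, read out with a cell viability assay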
# Assay: cells
# Format: functional, cell-based, Homo sapiens
# Settings: Homo sapiens, IST-MEL1
# Description: SANGER: Inhibition of human IST-MEL1 cell growth in a cell viability assay.
row,Compound,IC50 [µM]
1,OCCCNc1cc(-c2ccnc(Nc3cccc(Cl)c3)n2)ccn1,0.126

# Tested on: ES6;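 further: growth inhibition of human ES6 cells, read out with a cell viability assay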
# Assay: cells
# Format: functional, cell-based, Homo sapiens
# Settings: Homo sapiens, ES6
# Description: SANGER: Inhibition of human ES6 cell growth in a cell viability assay.
row,Compound,IC50 [µM]
1,OCCCNc1cc(-c2ccnc(Nc3cccc(Cl)c3)n2)ccn1,0.00878

# Tested on: NCI-H82;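 further: growth inhibition of NCI-H82 cells, measured with a cell viability readout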
# Assay: cells
# Format: functional, cell-based, Homo sapiens
# Settings: Homo sapiens, NCI-H82
# Description: SANGER: Inhibition of human NCI-H82 cell growth in a cell viability assay.
row,Compound,IC50 [µM]
1,OCCCNc1cc(-c2ccnc(Nc3cccc(Cl)c3)n2)ccn1,> 0.256

# Tested on: GCIY;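 further: growth inhibition of the human GCIY cell line, read out by a cell viability assay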
# Assay: cells
# Format: functional, cell-based, Homo sapiens
# Settings: Homo sapiens, GCIY
# Description: SANGER: Inhibition of human GCIY cell growth in a cell viability assay.
row,Compound,IC50 [µM]
1,OCCCNc1cc(-c2ccnc(Nc3cccc(Cl)c3)n2)ccn1,> 0.256

# Tested on: NB6;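 further: growth inhibition of NB6 cells, read out by a cell viability assay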
# Assay: cells
# Format: functional, cell-based, Homo sapiens
# Settings: Homo sapiens, NB6
# Description: SANGER: Inhibition of human NB6 cell growth in a cell viability assay.
row,Compound,IC50 [µM]
1,OCCCNc1cc(-c2ccnc(Nc3cccc(Cl)c3)n2)ccn1,> 0.256

# Tested on: L-363
# Assay: cells
# Format: functional, cell-based, Homo sapiens
# Settings: Homo sapiens, L-363
# Description: SANGER: Inhibition of human L-363 cell growth in a cell viability assay.
row,Compound,IC50 [µM]
1,OCCCNc1cc(-c2ccnc(Nc3cccc(Cl)c3)n2)ccn1,0.0926

# Tested on: ES4;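 further: growth inhibition of human ES4 cells, read out by a cell viability assay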
# Assay: cells
# Format: functional, cell-based, Homo sapiens
# Settings: Homo sapiens, ES4
# Description: SANGER: Inhibition of human ES4 cell growth in a cell viability assay.
row,Compound,IC50 [µM]
1,OCCCNc1cc(-c2ccnc(Nc3cccc(Cl)c3)n2)ccn1,0.0351
